Series [1] is described as follows: Pharmacokinetic property when administered intravenously in rat at 2 mg/kg. In kind it is ADME, organism-based. More on the design: dose 2 mg/kg, route intravenous. The following applies: in vivo, iv.
Series [2] can be described thus: Half life period was evaluated in rat plasma. In kind it is ADME, organism-based.
The subject of series [3] is Candida albicans. Description: In vitro antifungal activity against Candida albicans (CY1002) in 80% calf serum. The format is functional, organism-based.
Series [4] relates to Candida albicans. Description: In vitro antifungal activity against Candida albicans (CY1002) in YNBPB medium. The format is functional, organism-based.
The target of series [5] is T1, Peptide N-myristoyltransferase (Homo sapiens, UniProt P30419+O60551).
T1 sequence (P30419 whole entry): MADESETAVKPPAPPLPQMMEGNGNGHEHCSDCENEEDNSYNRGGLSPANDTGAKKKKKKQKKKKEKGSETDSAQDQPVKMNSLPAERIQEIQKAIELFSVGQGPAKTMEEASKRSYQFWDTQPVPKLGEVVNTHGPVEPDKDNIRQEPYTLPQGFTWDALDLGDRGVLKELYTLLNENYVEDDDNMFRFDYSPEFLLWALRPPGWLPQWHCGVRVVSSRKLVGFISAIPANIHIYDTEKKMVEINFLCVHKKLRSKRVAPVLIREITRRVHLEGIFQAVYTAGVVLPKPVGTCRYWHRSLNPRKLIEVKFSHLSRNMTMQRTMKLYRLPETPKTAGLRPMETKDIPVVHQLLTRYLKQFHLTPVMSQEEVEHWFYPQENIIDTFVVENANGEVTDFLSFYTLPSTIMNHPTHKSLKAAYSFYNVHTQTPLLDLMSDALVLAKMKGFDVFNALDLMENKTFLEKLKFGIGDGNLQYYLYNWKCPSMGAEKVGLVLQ
T1 sequence (O60551 whole entry): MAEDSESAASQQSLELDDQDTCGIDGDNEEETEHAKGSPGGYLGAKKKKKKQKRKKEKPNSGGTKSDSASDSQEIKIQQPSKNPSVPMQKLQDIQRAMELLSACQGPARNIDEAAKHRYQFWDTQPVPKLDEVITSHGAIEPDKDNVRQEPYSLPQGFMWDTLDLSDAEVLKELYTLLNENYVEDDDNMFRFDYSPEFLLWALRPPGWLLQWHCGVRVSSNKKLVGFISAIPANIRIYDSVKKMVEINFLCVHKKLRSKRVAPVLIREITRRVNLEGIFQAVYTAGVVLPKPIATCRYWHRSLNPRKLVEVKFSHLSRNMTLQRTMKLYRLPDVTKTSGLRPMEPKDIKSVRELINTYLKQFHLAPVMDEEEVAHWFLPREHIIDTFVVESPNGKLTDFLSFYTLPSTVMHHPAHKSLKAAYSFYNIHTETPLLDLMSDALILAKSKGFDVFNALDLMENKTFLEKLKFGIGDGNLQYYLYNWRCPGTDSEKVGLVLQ
Description: In vitro inhibitory activity against human Nmt (HsNmt) using 0.5 uM peptide GNAASAR-R-NH2 and 0.5 uM myristoyl-CoA. In kind it is protein assay.

The target of series [6] is Peptide N-myristoyltransferase (Candida albicans). Description: In vitro inhibitory activity against Candida albicans Nmt (CaNmt) using substrate peptide GLTISKLFR-R-NH2 (0.5 uM) and myristoyl-CoA (0.5 uM).
The target of series [7] is Peptide N-myristoyltransferase (Aspergillus fumigatus). Description: In vitro inhibitory activity against Aspergillus fumigatus Nmt (AfNmt) using substrate peptide GLTISKLFR-R-NH2 (0.5 uM) and myristoyl-CoA (0.5 uM).
The subject of series [8] is Candida albicans. Description: In vitro antifungal activity against Candida albicans (CY1002) in YNBPB medium in rat. In kind it is functional, organism-based.
Series [9] is filed under the species Rattus norvegicus. Description: Antifungal activity determined in rat infected with Candida albicans CY1002. In kind it is functional.
Series [10] concerns the target Peptide N-myristoyltransferase (Candida albicans). Description: In vitro inhibitory activity against candida albicans Nmt (CaNmt) using substrate peptide GLTISKLFR-R-NH2 (0.5 uM) and myristoyl-CoA (0.5 uM).
The target of series [11] is Peptide N-myristoyltransferase (Aspergillus fumigatus). Description: In vitro inhibitory activity against aspergillus fumigatus Nmt (AfNmt) using substrate peptide GLTISKLFR-R-NH2 (0.5 uM) and myristoyl-CoA (0.5 uM).
Series [12] is filed under the species Rattus norvegicus. Description: Antifungal activity determined in rat infected with Candida albicans CY1002. In kind it is functional.
In series [13] the target is Peptide N-myristoyltransferase (Candida albicans). Description: Inhibitory activity against Candida albicans Nmt (CaNmt) using substrate peptide GLTISKLFR-R-NH2 (0.5 uM) and myristoyl-CoA (0.5 uM).
Series [14] has as its system Mus musculus. Description: In vivo efficacy expressed as effective dose against murine systematic candidiasis model. The format is functional.
The target of series [15] is Peptide N-myristoyltransferase (Candida albicans). Description: In vitro inhibitory activity against Candida albicans Nmt (CaNmt) using substrate peptide GLTISKLFR-R-NH2 (0.5 uM) and myristoyl-CoA (0.5 uM). This is another data set of the same source.

In the case of `Cc1nc(C(=O)c2oc3cccc(OCCCNCc4cccnc4)c3c2C)sc1C`, in series [1], the AUC (as a rule, the area under the concentration-time curve, a measure of exposure) was determined as 320 ng·h/mL. In addition, the half-life (commonly how long it takes for the measured level to halve) in series [2] was 39 min. The half-inhibitory concentration (IC50) (in general, the concentration that gives 50% inhibition) in series [3] was 190 nM; in series [4], 39 nM; in [5], 83000 nM; in series [6] it was 0.71 nM; in series [7], 4300 nM.

In [1], `Cc1ccc(C(=O)c2oc3cccc(OCCCNCc4cccnc4)c3c2C)nc1` came in with an AUC of 440 ng·h/mL. In [2], this compound showed a half-life of 34.8 min. The IC50 in series [3] is 82 nM; in [8] it was 36 nM; in series [5] it was above 480000 nM; in [10] it was 0.39 nM; in series [11] it was 4100 nM. Moreover, the ED50 (commonly the midpoint of the dose-response relation) in series [9] stood at 15 mg/kg.

Consider `C=CCn1c(C(=O)c2oc3cccc(OCCCNCc4cccnc4)c3c2C)nc2ccccc21`, for which the AUC in [1] is 570 ng·h/mL. In addition, the half-life in series [2] is 48 min. The half-maximal inhibitory concentration (IC50) amounted to 420 nM in series [3]; 48 nM in series [4]; 85000 nM in [5]; 0.58 nM in series [6]; 5100 nM in series [7]. Also, the median effective dose (ED50) in series [12] worked out at 8.7 mg/kg.

Regarding `Cc1c(C(=O)c2ccccc2)oc2cccc(OCCCNCc3cccnc3)c12`, the IC50 in series [13] is 1200 nM.

`Cc1c(C(O)c2ccccn2)oc2cccc(OCCCNCc3cccnc3)c12` (stereo not given) displayed an IC50 in [13] of 47 nM.

In series [1], `Cc1c(C(=O)c2nc3ccccc3n2C)oc2cccc(OCCCNCc3cccnc3)c12` displayed an exposure (AUC) of 450 ng·h/mL. The same compound gave a half-life in [2] of 35.4 min. Also, the IC50 in [3] was found to be 1200 nM; in [4], 35 nM; in [5], 94000 nM; in series [6] it was 0.4 nM; in series [7], 13000 nM.

As to `Cc1c(C(=O)c2nccs2)oc2cccc(OCCCNCc3cccnc3)c12`, the 50% inhibitory concentration (IC50) in [3] worked out at 8300 nM; in series [4] it was 540 nM; in series [5], 25000 nM; in [6], 91 nM; in series [7] it was 63000 nM.

`Cc1c(COc2ccc(F)c(F)c2F)oc2cccc(OCCCNCc3cccnc3)c12` showed a half-life in [2] of 120 min. The compound further had a median effective dose (ED50) in [14] of 7.1 mg/kg.

For the compound `Cc1c(C(=O)c2cccnc2)oc2cccc(OCCCNCc3cccnc3)c12`, in series [13], the IC50 stood at 62 nM.

Compound `Cc1c(C(=O)c2ncccc2C(F)(F)F)oc2cccc(OCCCNCc3cccnc3)c12` gave an AUC in [1] of 590 ng·h/mL. The same compound had a half-life in series [2] of 33.6 min. Also, the 50% inhibitory concentration (IC50) was 5100 nM in series [3]; 340 nM in [4]; above 430000 nM in [5]; 43 nM in [6]; 11000 nM in series [7].

`Cc1c(Cc2ccccn2)oc2cccc(OCCCNCc3cccnc3)c12`: in series [13], the IC50 is 1900 nM.

In [1], `Cc1c(C(=O)c2ccccn2)oc2cccc(OCCCNCc3cccnc3)c12` showed an exposure (AUC) of 410 ng·h/mL. In series [2], this compound had a half-life of 32.4 min. In addition, the IC50 in [3] is 470 nM; in series [4], 65 nM; in series [5] it was 340000 nM; in series [15], 3.5 nM; in series [7] it was 42000 nM.

`Cc1c(C(=O)c2nccn2C)oc2cccc(OCCCNCc3cccnc3)c12` gave an AUC in series [1] of 530 ng·h/mL. Also, in series [2], the half-life is 27 min. For the same compound, the IC50 in series [3] is 3000 nM; in series [4] it was 120 nM.

For the compound `Cc1c(C(=O)c2ccco2)oc2cccc(OCCCNCc3cccnc3)c12`, the IC50 was determined as 25000 nM in series [3]; 4600 nM in [4]; 280000 nM in [5]; 1400 nM in series [6]; 150000 nM in [7].

In series [1], `Cc1csc(C(=O)c2oc3cccc(OCCCNCc4cccnc4)c3c2C)n1` registered an AUC of 470 ng·h/mL. Further, the half-life in [2] was 20.4 min. For the same compound, the IC50 was determined as 740 nM in series [3]; 140 nM in [4]; 130000 nM in series [5]; 2 nM in series [6]; 18000 nM in series [7].

In [1], `Cc1c(C(=O)c2nc3ccccc3n2C(C)C)oc2cccc(OCCCNCc3cccnc3)c12` gave an AUC of 810 ng·h/mL. The half-life in series [2] was 51.6 min. Besides, the concentration for half-maximal inhibition (IC50) in [3] is 2700 nM; in series [4], 19 nM; in series [5], 99000 nM; in series [6], 1.3 nM; in series [7] it was 480 nM.

`OC(Cn1cncn1)(Cn1cncn1)c1ccc(F)cc1F` [FLUCONAZOLE] displayed an area under the curve (AUC) in series [1] of 19600 ng·h/mL. Moreover, the half-life in [2] is 240 min.

The record behind these values is ChEMBL document CHEMBL1136367, “Design and synthesis of novel benzofurans as a new class of antifungal agents targeting fungal N-myristoyltransferase. Part 3” (Bioorg Med Chem Lett, 2003).
